SMILES strings stand for the structures. Like-named read-outs stand apart in the source and are kept apart here.

The target in this assay is T1, F508delCFTR (Homo sapiens, UniProt P13569, DEL508-508).
T1 construct: expressed in transfected cells; host or cells: CFBE4lo-F508delCFTR-HRP cells (human lung derived epithelial cell line, doxycycline-inducible)
Briefly: Cell Surface Expression-Horse Radish Peroxidase (CSE-HRP) Assay. Type of assay: cell-based. Particulars: for EC50: CFBE4lo-F508delCFTR-HRP cells, 18-24 hours at 33° C.; for Emax / Maximum % activity (with co-corrector): maximum at any tested concentration (up to 20 μM), normalized to on-plate positive control (2 μM co-corrector); for Maximum % activity (with co-corrector): with co-corrector 2 μM. In outline:
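Surface F508delCFTR measured via exofacial-loop HRP luminescence (luminol) in doxycycline-induced (0.5 μg/mL, 72 h) CFBE4lo− cells. Compounds, 20 μM top, 3-fold, 8 concentrations, ±2 μM co-corrector, incubated 18-24 h at 33° C; EC50 by variable-slope sigmoidal fit of % activity relative to positive control, three replicate plates.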

Setting [1] is: test compound without co-corrector, HRP luminescence readout, read-out: EC50 (without co-corrector).
[2] abbreviates: test compound without co-corrector.
Where [3] appears, read: with co-corrector 2 μM 3-[(2R,4R)-4-({[1-(2,2-difluoro-1,3-benzodioxol-5-yl)cyclopropyl]carbonyl}amino)-7-methoxy-3,4-dihydro-2H-chromen-2-yl]benzoic acid, read-out: EC50 (with co-corrector).

T1 sequence (P13569 with tags, fused parts or gaps DEL508-508): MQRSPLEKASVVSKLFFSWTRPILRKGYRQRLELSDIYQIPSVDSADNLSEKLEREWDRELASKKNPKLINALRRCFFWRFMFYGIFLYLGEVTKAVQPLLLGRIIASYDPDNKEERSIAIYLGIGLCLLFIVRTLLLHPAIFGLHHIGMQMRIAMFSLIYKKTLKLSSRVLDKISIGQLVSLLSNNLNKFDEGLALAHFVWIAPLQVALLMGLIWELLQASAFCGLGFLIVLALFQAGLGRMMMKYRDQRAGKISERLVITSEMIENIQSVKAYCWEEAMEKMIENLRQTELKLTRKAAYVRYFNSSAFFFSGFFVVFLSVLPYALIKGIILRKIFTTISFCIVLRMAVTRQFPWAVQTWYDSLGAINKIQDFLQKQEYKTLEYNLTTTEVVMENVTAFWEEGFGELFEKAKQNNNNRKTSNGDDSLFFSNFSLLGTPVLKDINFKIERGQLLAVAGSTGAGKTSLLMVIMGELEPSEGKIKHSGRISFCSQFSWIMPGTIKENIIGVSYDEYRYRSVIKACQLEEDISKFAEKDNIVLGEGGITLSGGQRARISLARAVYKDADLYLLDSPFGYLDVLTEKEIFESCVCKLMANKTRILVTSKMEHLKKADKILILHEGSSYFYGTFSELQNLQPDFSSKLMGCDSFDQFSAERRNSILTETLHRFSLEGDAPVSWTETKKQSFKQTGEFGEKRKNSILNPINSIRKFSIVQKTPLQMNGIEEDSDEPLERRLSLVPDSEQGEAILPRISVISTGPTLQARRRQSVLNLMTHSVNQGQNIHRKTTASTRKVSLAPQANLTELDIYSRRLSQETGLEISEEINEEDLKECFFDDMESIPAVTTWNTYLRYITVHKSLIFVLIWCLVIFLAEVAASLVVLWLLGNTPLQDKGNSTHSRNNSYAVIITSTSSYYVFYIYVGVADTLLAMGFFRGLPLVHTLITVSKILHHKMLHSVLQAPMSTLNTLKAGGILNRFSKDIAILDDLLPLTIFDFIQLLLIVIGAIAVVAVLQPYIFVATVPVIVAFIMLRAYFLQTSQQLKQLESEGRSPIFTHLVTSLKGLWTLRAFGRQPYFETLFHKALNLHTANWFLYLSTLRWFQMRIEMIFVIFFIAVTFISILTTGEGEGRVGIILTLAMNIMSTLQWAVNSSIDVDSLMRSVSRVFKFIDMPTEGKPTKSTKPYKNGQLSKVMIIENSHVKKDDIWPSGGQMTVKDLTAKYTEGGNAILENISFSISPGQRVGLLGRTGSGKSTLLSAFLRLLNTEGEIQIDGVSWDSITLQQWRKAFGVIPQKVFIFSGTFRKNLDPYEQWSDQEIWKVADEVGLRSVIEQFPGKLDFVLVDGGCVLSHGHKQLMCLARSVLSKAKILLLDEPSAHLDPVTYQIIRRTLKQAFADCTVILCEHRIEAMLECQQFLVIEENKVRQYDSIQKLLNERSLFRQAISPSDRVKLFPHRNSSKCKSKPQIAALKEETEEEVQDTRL

Turning to `COc1ccc(C2CCC2)c2c1[C@H](C(=O)NS(=O)(=O)c1cccc3cnn(C)c13)CO2` [Example 95, (3S)-7-cyclobutyl-4-methoxy-N-(1-methyl-1H-indazole-7-sulfonyl)-2,3-dihydro-1-benzofuran-3-carboxamide], the “Maximum % activity (with co-corrector)” value was “+++ (≥350)”. In addition, under setting [1], the EC50 (as a rule, the concentration at which the effect is half-maximal) is less than 3 µM. In addition, the Emax – broadly, the maximal effect, on the per cent scale that the assay sets – under setting [2] was not below 150%. The EC50 under setting [3] was less than 3 µM.

Consider `COc1ccc(C2CCC2)c2c1[C@@H](C(=O)NS(=O)(=O)c1cccc3c1CCCN3)CC(C)(C)O2` [Example 96, (4S)-8-cyclobutyl-5-methoxy-2,2-dimethyl-N-(1,2,3,4-tetrahydroquinoline-5-sulfonyl)-3,4-dihydro-2H-1-benzopyran-4-carboxamide], for which the “Maximum % activity (with co-corrector)” value is “+++ (≥350)”. In addition, the EC50 under setting [1] is less than 3 µM. This compound also returned an Emax under setting [2] not below 150%. Further, under setting [3], the EC50 is less than 3 µM.

Take `COc1ccc(C2CCC2)c2c1[C@H](C(=O)NS(=O)(=O)c1cccc3c1NCCC3)CO2` [Example 99, (3S)-7-cyclobutyl-4-methoxy-N-(1,2,3,4-tetrahydroquinoline-8-sulfonyl)-2,3-dihydro-1-benzofuran-3-carboxamide]: the “Maximum % activity (with co-corrector)” value is “+++ (≥350)”. The EC50 under setting [1] is less than 3 µM. Moreover, the Emax under setting [2] is not below 150%. Further, under setting [3], the EC50 is less than 3 µM.

As to `COc1ccc(C2CCC2)c2c1[C@@H](C(=O)NS(=O)(=O)c1cccc3c1CCCN3)CO2` [Example 100, (3R)-7-cyclobutyl-4-methoxy-N-(1,2,3,4-tetrahydroquinoline-5-sulfonyl)-2,3-dihydro-1-benzofuran-3-carboxamide], the “Maximum % activity (with co-corrector)” value is “+++ (≥350)”. In addition, under setting [1], the EC50 lay in the range of 3 to 10 µM. The Emax under setting [2] fell in the range of 50 to 150%. The EC50 under setting [3] was in the range of 3 to 10 µM.

`COc1ccc(C2CCC2)c2c1[C@H](C(=O)NS(=O)(=O)c1cccc3c1CCCN3)CO2` [Example 101, (3S)-7-cyclobutyl-4-methoxy-N-(1,2,3,4-tetrahydroquinoline-5-sulfonyl)-2,3-dihydro-1-benzofuran-3-carboxamide]: the “Maximum % activity (with co-corrector)” value is reported as “+++ (≥350)”. For the same compound, the EC50 under setting [1] is less than 3 µM. The compound also displayed an Emax under setting [2] not below 150%. The EC50 under setting [3] was less than 3 µM.

In the case of `COc1ccc(C2CCC2)c2c1C(C(=O)NS(=O)(=O)c1cccc3[nH]ccc13)CCO2` (stereo not shown) [Example 102, 8-cyclobutyl-N-(1H-indole-4-sulfonyl)-5-methoxy-3,4-dihydro-2H-1-benzopyran-4-carboxamide], the “Maximum % activity (with co-corrector)” value is “+++ (≥350)”. Besides, under setting [1], the EC50 is less than 3 µM. Under setting [2], this compound displayed an Emax not below 150%. The EC50 under setting [3] is less than 3 µM.

As for `COc1ccc(C2CCC2)c2c1[C@@H](C(=O)NS(=O)(=O)c1cccc3[nH]ccc13)CCO2` [Example 103, (4S)-8-cyclobutyl-N-(1H-indole-4-sulfonyl)-5-methoxy-3,4-dihydro-2H-1-benzopyran-4-carboxamide], the “Maximum % activity (with co-corrector)” value was “+++ (≥350)”. Besides, under setting [1], the EC50 is 3 to 10 µM. Besides, the Emax under setting [2] was not below 150%. Also, under setting [3], the EC50 is less than 3 µM.

Turning to `COc1ccc(C2CCC2)c2c1[C@H](C(=O)NS(=O)(=O)c1cccc3[nH]ccc13)CCO2` [Example 104, (4R)-8-cyclobutyl-N-(1H-indole-4-sulfonyl)-5-methoxy-3,4-dihydro-2H-1-benzopyran-4-carboxamide], the “Maximum % activity (with co-corrector)” value is recorded as “+++ (≥350)”. The EC50 under setting [1] is less than 3 µM. Under setting [2], this compound showed an Emax not below 150%. For the same compound, the EC50 under setting [3] was less than 3 µM.

As to `COc1ccc(C2CCC2)c2c1OCCC2C(=O)NS(=O)(=O)c1cccc2ncccc12` (stereo not shown) [Example 105, 5-cyclobutyl-8-methoxy-N-(quinoline-5-sulfonyl)-3,4-dihydro-2H-1-benzopyran-4-carboxamide], the “Maximum % activity (with co-corrector)” value is on record as “+++ (≥350)”. In addition, the EC50 under setting [1] fell in the range of 3 to 10 µM. Under setting [2], this compound yielded an Emax not below 150%. For the same compound, the EC50 under setting [3] is less than 3 µM.

As for `COc1ccc(Br)c2c1CCOC2C(=O)NS(=O)(=O)c1cccc2ccccc12` (stereo not shown) [Example 108, 8-bromo-5-methoxy-N-(naphthalene-1-sulfonyl)-3,4-dihydro-1H-2-benzopyran-1-carboxamide], the “Maximum % activity (with co-corrector)” value is on record as “+++ (≥350)”. For the same compound, the EC50 under setting [1] lay within 3 to 10 µM. Under setting [2], this compound returned an Emax of 50 to 150%. Besides, the EC50 under setting [3] was less than 3 µM.

`O=C(NS(=O)(=O)c1cccc2ccccc12)C1OCCc2ccc(OC(F)(F)F)cc21` (stereo not shown) [Example 109, N-(naphthalene-1-sulfonyl)-7-(trifluoromethoxy)-3,4-dihydro-1H-2-benzopyran-1-carboxamide]: the “Maximum % activity (with co-corrector)” value is “++ (≥150 and <350)”. The concentration giving a half-maximal response (EC50) under setting [3] is 3 to 10 µM.

Take `COc1cccc2c1CCOC2C(=O)NS(=O)(=O)c1cccc2ccccc12` (stereo not shown) [Example 110, 5-methoxy-N-(naphthalene-1-sulfonyl)-3,4-dihydro-1H-2-benzopyran-1-carboxamide]: the “Maximum % activity (with co-corrector)” value was “++ (≥150 and <350)”. In addition, the EC50 under setting [1] is not below 10 µM. This compound also returned an Emax under setting [2] of less than 50%. Moreover, the EC50 under setting [3] lay within 3 to 10 µM.

The record behind these values is patent publication US10428017B2, “Modulators of the cystic fibrosis transmembrane conductance regulator protein and methods of use” (AbbVie S.à.r.l., priority 2017, dated 2019).
